Reference: patent US10975123B2, “Mutant Akt-specific capture agents, compositions, and methods of using and making” (California Institute of Technology, priority 2014, dated 2021)
“Also recorded” adds a separate entry of the source. Where a SMILES comes first, the peptide text is derived from it. [ ]: non-standard residue; d: D form.

What was measured:
[1] = biological target: T1, E17K PH Domain binding to PIP3 (Homo sapiens, UniProt P31749, E17K); assay: PIP3 agarose inhibition assay, E17K; type: biochemical; details: ligand 2.38 μM (10x protein), protein 234 nM, western blot, in words
T1 construct: 2 μg of either wildtype or mutant PH Domain-GFP protein (234 nM); made in house; host or cells: HEK-293-6E (used as cell lysate, not purified)
Description: The yleaf ligand, the biligand, and the triligand were all tested for their ability to block the E17K PHD binding with PIP3. For this test, PIP3-coated resin (Echelon Biosciences) was used to mimic the PHD interaction with the cell membrane, and could be used to bind the protein as in an immunoprecipitation assay^22. The presence of an effective blocking compound would reduce the ability of the resin to capture the protein, and would thus appear as a diminished signal in the corresponding western blot assay. A control lane containing no capture agent was used to show baseline binding of the protein to the PIP3 resin. […] In an expanded study, we compared the amount of E17K and WT PH domain binding relative to the amount of added triligand (FIG. 5e).
PIP3 Agarose beads (Echelon) were used to detect for the inhibition of PH Domain binding to its substrate, PIP3, upon incubation with the anchor candidate peptide ligands. To test the inhibition of each of the ligands, anchor biligand and triligand, 20 μL of resin slurry was added to each of four tubes and washed three times with 1×TBS. Protein, 2 μg (234 nM) of E17K mutant, was preincubated for one hour at room temperature with either DMSO (no protein blank), anchor, biligand or triligand at 2.38 μM (10× in relation to protein) in 200 μL of 1×TBS. For the control, mutant PH Domain was incubated with 1×TBS and 1 μL […] to mimic the ligand conditions. These protein samples were then added to PIP3 agarose in a Spin-X tube and incubated at room temperature for two hours. The resin was washed three times with 1×TBS with 0.25% IGEPAL CA-630, spun out to dry completely, then denatured with 50 μL 3×SDS gel loading buffer for 10 min at 95° C. The gel loading buffer was spun out of the resin and detected via western blot as per the Streptavidin-Agarose Pulldowns. Inhibition was indicated by a decrease in the amount of PH Domain that was pulled down by the resin.
Expanded inhibition blots with either WT of E17K mutant protein were performed in a similar fashion. Twelve tubes of 20 μL of PIP3 agarose were washed three times with 1×TBS. 2 μg of either wildtype or mutant PH Domain-GFP protein (234 nM) in 200 uL 1×TBS were preincubated for 30 minutes with differing concentrations of triligand: 0.1 eq (23.4 nM), 1 eq (234 nM), 10 eq (2.34 μM), 100 eq (23.4 μM), and 1000 eq (234 μM). The protein and triligand solutions were then incubated with the PIP3 resin for 2 hours at room temperature. The resins were washed, eluted, and blotted as per all PH Domain western blots.

[2] = biological target: T2, WT 33-mer fragment (6His-tagged) (Homo sapiens, UniProt P31749, H13K); assay: HPLC-detected immunoprecipitation (pulldown), WT 33-mer; type: binding; details: 50 μM epitope, overnight 4° C., guanidine elution, in words
T2 construct: made in house; host or cells: chemical synthesis (Fmoc SPPS)
T2 sequence (P31749 1-33 H13K limits assumed): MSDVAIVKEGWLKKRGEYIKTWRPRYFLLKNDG
Description: The label-modified yleaf (SEQ ID NO: 43) peptide (FIG. 2a and FIG. 12) was subjected to a variety of binding assays against the synthesized WT and E17K 33-mer PHD fragments prepared without the biotin label and alkyne click handle. First, the yleaf (SEQ ID NO: 43) peptide was used in immunoprecipitation assays to pull-down either the WT or E17K mutant 6His-tagged (SEQ ID NO: 4) 33-mer peptide fragments (FIGS. 13 and 14), as opposed to the full-length proteins that were used to initially validate the candidates. Typical immunoprecipitation assays involve western blotting to estimate the amount of protein binding, but 33-mer peptide fragments are not easily quantified on a blot. Because of this, the amount of peptide epitope precipitated in these assays was quantified via injection on an analytical HPLC. These assays further confirmed preferential yleaf (SEQ ID NO: 43) ligand binding to the E17K 33-mer epitope relative to the WT epitope (FIG. 15).
Pulldown assays with the biotinylated anchor and his-tagged 33-mer epitope were performed to verify epitope targeting. […] Because small peptide fragments like the 33-mer epitope are difficult to transfer to and detect on the nitrocellulose membrane as for a traditional Western blot, the amount of binding in these assays was detected via HPLC. […]

[3] = system: E17K 33-mer epitope vs WT 33-mer epitope (6His-tagged); assay: Point ELISA with anchor ligand and 33-mer epitope; type: binding; details: PEG-biotin-modified yleaf on neutravidin plate; epitope 100 nM-1 μM, in words
Description: The selectivity of the yleaf (SEQ ID NO: 43) peptide for the E17K 33-mer epitope was also tested in an ELISA assay format. For these assays, the WT or E17K 33-mer peptide fragments were captured using the PEG-biotin-modified yleaf (SEQ ID NO: 43) ligand immobilized on a neutravidin-coated plate.
For these assays, 100 nM Biotin-PEG5-yleaf (SEQ ID NO: 43) (FIG. 12) was immobilized for one hour on a neutravidin-coated ELISA plate (Pierce). The plate was blocked in 5% BSA in 1×TBS for one hour, then again overnight at room temperature. The immobilized anchor was then incubated with either 1 μM or 100 nM wildtype 33-mer epitope or 1 μM or 100 nM E17K mutant 33-mer epitope for one hour. The plate was washed three times with 1×TBS+0.1% Tween-20 and tapped dry. The epitope was then detected by a 1:1,000 dilution of an anti-his mouse mAb (ab18184, Abcam) for one hour, washed as above, and then detected with 1:10,000 dilution of an anti-mouse HRP-conjugated goat pAb (Abcam) for one hour. The plate was once again washed and developed with a 1:1 TMB substrate (KMB) for 15 minutes. To graph the data, the blank (epitope and antibodies binding to plate with no anchor ligand present) was subtracted from the triplicate sample values. […] The triplicate values were then graphed (FIG. 1C) with their error bars and the p-values were calculated by GraphPad.

T1 sequence (P31749 5-108 E17K limits assumed): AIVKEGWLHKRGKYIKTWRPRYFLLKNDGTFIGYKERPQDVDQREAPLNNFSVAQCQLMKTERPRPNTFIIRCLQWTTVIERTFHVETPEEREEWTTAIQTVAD

## CC(C)C[C@@H](NC(=O)[C@H](N)Cc1ccc(O)cc1)C(=O)N[C@H](CCC(=O)O)C(=O)N[C@H](C)C(=O)N[C@H](Cc1ccccc1)C(N)=O [yleaf] (H-[dY][dL][dE][dA][dF]-NH2; N-terminus assumed)
[1]
  inhibition of E17K PH Domain binding to PIP3-coated resin: did not exhibit evidence of inhibition; also recorded: no change in E17K binding ability
[2]
  amount of WT 33-mer fragment pulled down (HPLC peak): the least of the WT fragment
[3]
  selectivity for E17K 33-mer fragment over WT in point ELISA: significant selectivity for the E17K fragment over the WT
